US20100189811A1, “Biocide compositions comprising 3-methylisothiazolin-3-one and a haloalkyl sulphone” (THOR GmbH, priority 2009, published 2010)

Legend:
[1] = test system: Pseudomonas aeruginosa (ATCC 9027); assay: Minimum inhibitory concentration and synergy index in nutrient agar, visual test for growth; format: cell-based; conditions: 48 hours at 30° C.; for Synergy index Qa/QA + Qb/QB: method of Kull et al.
Description: (§1) The synergism of a combination of MIT with diiodomethyl p-tolyl sulphone was tested. Test organisms used were the Gram-negative bacterium Pseudomonas aeruginosa (ATCC 9027) and the mould Aspergillus niger (ATCC16404). For the purpose of the test, mixtures containing different concentrations of MIT and diiodomethyl p-tolyl sulphone were prepared and tested for their action on Pseudomonas aeruginosa and Aspergillus niger respectively. The active compound mixtures in the corresponding concentrations were introduced into selective nutrient media (nutrient agar for Pseudomonas aeruginosa and Sabouraud glucose agar for Aspergillus niger) and the test organisms were likewise incorporated into the agar. The cell density in the agar was in each case 10^6 microbes per ml in the case of Pseudomonas aeruginosa and 10^5 spores per ml in for Aspergillus niger.
(§2) The incubation time is 48 hours (bacteria) or 72 hours (moulds) at 30° C. and 25° C. respectively. This was followed by visual testing for growth of Pseudomonas aeruginosa and Aspergillus niger. In the case of Pseudomonas aeruginosa, growth was apparent by hazing or greenish coloration of the nutrient medium, or by formation of colonies on the surface of the agar. In the case of Aspergillus niger, the growth was apparent through the formation of colonies or mycelia on the surface of the agar. In this way the minimum inhibitory concentrations (MICs) of the two active compounds were determined, individually and in combination. The MIC is the concentration at which there is no longer any hazing, colouring of the agar or colony formation on the surface of the agar (Pseudomonas aeruginosa) and no formation of colonies or mycelia on the surface of the agar (Aspergillus niger).
(§3) The synergism that occurred was presented numerically by calculation of the synergy index (SI). This calculation was made using the common method of F. C. Kull et al., Applied Microbiology, vol. 9 (1961), p. 538. SI is calculated there in accordance with the following formula:
(§4) Synergy index SI=Qa/QA+Qb/QB
(§5) In the application of this formula to the MIT+DIMTS biocide system tested here, the variables in the formula have the following definition:
(§6) Qa=concentration of MIT in the mixture of diiodomethyl p-tolyl sulphone+MIT QA=concentration of MIT as sole biocide Qb=concentration of diiodomethyl p-tolyl sulphone in the biocide mixture QB=concentration of diiodomethyl p-tolyl sulphone as sole biocide
(§7) If the synergy index has a value of more than 1, this means that there is an antagonism.
(§8) If the synergy index adopts a value of 1, this means that the action of the two biocides is additive. If the synergy index takes on a value of below 1, this means that there is synergism of the two biocides.

[2] = test system: Aspergillus niger (ATCC16404); assay: Minimum inhibitory concentration and synergy index in Sabouraud glucose agar, visual test for growth; format: cell-based; conditions: 72 hours at 25° C.; for Synergy index Qa/QA + Qb/QB: method of Kull et al.
Description: as §1, §2, §3, §4, §5, §6, §7, §8

[3] = concentration of DIMTS (sole or in the mixture) that shows an endpoint
[4] = concentration of MIT (sole or in the mixture) which shows an endpoint

## Cc1ccc(S(=O)(=O)C(I)I)cc1 [DIMTS, diiodomethyl p-tolyl sulphone]
[1]
  Synergy index Qa/QA + Qb/QB: 1.00
[1]; [3]
  MHK Qb (DIMTS): 1250 ppm
[2]
  Synergy index Qa/QA + Qb/QB: 1.00
[2]; [3]
  MHK Qb (DIMTS): 10 ppm

## Cn1sccc1=O [MIT, 2-methylisothiazolin-3-one]
[1]
  Synergy index Qa/QA + Qb/QB: 1.00
[1]; [4]
  MHK Qa (MIT): 40 ppm
[2]
  Synergy index Qa/QA + Qb/QB: 1.00
[2]; [4]
  MHK Qa (MIT): 800 ppm
